Source: ChEMBL document CHEMBL4706599, “Discovery of novel quinazoline derivatives as potent PI3Kδ inhibitors with high selectivity” (Eur J Med Chem, 2020)

What was measured:
[1] = system: Ramos; test: Antiproliferative activity against human Ramos cells assessed as inhibition of cell growth after 48 hrs by MTT assay; format: functional, cell-based
[2] = biological target: T1, Phosphatidylinositol 4,5-bisphosphate 3-kinase catalytic subunit delta isoform (Homo sapiens, UniProt O00329); test: Inhibition of PI3Kdelta (unknown origin) by ADP-Glo kinase assay
T1 sequence (O00329 whole entry): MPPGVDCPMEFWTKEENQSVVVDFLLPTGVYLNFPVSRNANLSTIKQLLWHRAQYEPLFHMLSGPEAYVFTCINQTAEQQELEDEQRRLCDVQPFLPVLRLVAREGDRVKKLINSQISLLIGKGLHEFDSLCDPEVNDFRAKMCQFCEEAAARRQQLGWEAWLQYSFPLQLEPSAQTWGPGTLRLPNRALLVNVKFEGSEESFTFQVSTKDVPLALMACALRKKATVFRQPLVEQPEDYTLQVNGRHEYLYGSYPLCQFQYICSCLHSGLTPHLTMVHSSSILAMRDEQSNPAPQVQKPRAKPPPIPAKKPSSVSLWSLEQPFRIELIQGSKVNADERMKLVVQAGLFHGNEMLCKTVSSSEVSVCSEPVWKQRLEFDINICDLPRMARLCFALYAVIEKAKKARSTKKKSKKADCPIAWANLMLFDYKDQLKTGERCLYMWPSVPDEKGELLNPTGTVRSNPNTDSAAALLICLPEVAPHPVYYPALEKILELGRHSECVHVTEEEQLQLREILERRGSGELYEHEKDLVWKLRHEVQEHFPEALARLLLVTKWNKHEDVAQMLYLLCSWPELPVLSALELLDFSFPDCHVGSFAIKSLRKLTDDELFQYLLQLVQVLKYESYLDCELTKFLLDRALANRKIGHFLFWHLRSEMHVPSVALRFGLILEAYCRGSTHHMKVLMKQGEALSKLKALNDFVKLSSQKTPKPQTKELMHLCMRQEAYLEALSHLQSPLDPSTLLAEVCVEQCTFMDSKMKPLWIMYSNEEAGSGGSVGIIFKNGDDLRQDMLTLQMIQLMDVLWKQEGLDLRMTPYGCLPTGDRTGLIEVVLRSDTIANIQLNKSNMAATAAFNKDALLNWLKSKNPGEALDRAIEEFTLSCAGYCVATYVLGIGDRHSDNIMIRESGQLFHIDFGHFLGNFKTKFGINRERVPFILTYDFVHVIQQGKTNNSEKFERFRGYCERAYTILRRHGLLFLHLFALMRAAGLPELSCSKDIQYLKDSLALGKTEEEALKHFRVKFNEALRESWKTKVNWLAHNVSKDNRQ

[3] = system: Raji; test: Antiproliferative activity against human Raji cells assessed as inhibition of cell growth after 48 hrs by MTT assay; format: functional, cell-based
[4] = biological target: T2, Phosphatidylinositol 4,5-bisphosphate 3-kinase catalytic subunit delta isoform (Homo sapiens) (UniProt O00329); test: Inhibition of PI3Kdelta (unknown origin) at 200 nM by ADP-Glo kinase assay relative to control
T2 sequence (whole entry): T1 sequence (O00329 whole entry)

[5] = species: Homo sapiens; test: Selectivity index, ratio of IC50 for PI3Kbeta (unknown origin) to IC50 for PI3Kdelta (unknown origin)
[6] = system: Raji; test: Inhibition of PI3K/Akt signalling pathway in human Raji cells assessed as reduction in Akt phosphorylation at Ser473 residue after 24 hrs by Western blot analysis; format: cell-based; details: dose 1-1000 nM
[7] = species: Homo sapiens; test: Selectivity index, ratio of IC50 for PI3Kalpha (unknown origin) to IC50 for PI3Kdelta (unknown origin)
[8] = species: Homo sapiens; test: Selectivity index, ratio of IC50 for PI3Kgamma (unknown origin) to IC50 for PI3Kdelta (unknown origin)
[9] = system: Raji; test: Antiproliferative activity against human Raji cells assessed as reduction in cell viability at 10 uM by MTT assay; format: functional, cell-based; details: TDE = time-dependent effect
[10] = biological target: Phosphatidylinositol 4,5-bisphosphate 3-kinase catalytic subunit beta isoform (Homo sapiens, UniProt P42338); test: Inhibition of PI3Kbeta (unknown origin)
[11] = system: Raji; test: Induction of apoptosis in human Raji cells assessed as late apoptotic cells at 5 uM measured after 24 hrs by Annexin V-FITC/PI staining based flow cytometry (reference value: 2.11 %); format: functional
[12] = Metabolic stability in rat liver microsomes assessed as compound remaining at 1 uM measured up to 45 mins in presence of NADPH by LC/MS analysis; format: ADME, Microsome; details: 0.75 h
[13] = Metabolic stability in human liver microsomes assessed as compound remaining at 1 uM measured up to 45 mins in presence of NADPH by LC/MS analysis; format: ADME, Microsome; details: 0.75 h
[14] = system: Raji; test: Antiproliferative activity against human Raji cells assessed as reduction in cell viability at 10 uM after 24 hrs by MTT assay; format: functional
[15] = system: Raji; test: Antiproliferative activity against human Raji cells assessed as reduction in cell viability after 24 hrs by MTT assay; format: functional, cell-based; details: dose 0.2-15 µM
[16] = biological target: Phosphatidylinositol 4,5-bisphosphate 3-kinase catalytic subunit alpha isoform (Homo sapiens, UniProt P42336); test: Inhibition of PI3Kalpha (unknown origin)
[17] = biological target: Phosphatidylinositol 4,5-bisphosphate 3-kinase catalytic subunit gamma isoform (Homo sapiens, UniProt P48736); test: Inhibition of PI3Kgamma (unknown origin)
Chain of Phosphatidylinositol 4,5-bisphosphate 3-kinase catalytic subunit gamma isoform (P48736 whole entry, canonical isoform): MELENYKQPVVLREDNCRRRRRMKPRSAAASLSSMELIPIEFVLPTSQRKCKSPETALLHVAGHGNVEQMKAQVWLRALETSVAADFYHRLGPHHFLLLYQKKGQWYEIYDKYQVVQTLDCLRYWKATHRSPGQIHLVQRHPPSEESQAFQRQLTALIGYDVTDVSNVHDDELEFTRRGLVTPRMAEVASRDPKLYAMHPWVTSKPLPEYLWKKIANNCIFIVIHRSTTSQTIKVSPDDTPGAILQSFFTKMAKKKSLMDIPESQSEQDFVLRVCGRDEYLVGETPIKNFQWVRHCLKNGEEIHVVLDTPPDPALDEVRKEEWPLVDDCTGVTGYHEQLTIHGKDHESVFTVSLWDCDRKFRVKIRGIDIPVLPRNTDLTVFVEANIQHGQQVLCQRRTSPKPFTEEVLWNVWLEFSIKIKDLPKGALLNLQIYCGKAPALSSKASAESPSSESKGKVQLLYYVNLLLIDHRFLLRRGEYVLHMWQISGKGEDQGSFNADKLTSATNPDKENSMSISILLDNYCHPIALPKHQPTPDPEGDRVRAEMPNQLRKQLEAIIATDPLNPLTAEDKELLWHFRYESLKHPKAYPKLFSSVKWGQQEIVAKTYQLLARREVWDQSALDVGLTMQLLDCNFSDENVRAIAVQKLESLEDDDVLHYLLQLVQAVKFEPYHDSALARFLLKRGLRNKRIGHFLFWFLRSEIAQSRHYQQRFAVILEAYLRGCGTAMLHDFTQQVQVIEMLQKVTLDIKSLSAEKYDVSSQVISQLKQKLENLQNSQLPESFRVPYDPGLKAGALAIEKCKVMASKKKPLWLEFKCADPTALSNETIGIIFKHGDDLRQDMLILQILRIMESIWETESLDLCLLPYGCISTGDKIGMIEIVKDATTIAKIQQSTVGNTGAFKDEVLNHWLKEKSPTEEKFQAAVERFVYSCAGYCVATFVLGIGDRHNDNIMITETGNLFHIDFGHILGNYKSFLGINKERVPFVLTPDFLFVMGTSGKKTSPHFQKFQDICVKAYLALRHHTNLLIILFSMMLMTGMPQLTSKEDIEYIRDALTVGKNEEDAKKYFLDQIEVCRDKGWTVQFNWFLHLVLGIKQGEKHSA

Chain of Phosphatidylinositol 4,5-bisphosphate 3-kinase catalytic subunit alpha isoform (P42336 whole entry, canonical isoform): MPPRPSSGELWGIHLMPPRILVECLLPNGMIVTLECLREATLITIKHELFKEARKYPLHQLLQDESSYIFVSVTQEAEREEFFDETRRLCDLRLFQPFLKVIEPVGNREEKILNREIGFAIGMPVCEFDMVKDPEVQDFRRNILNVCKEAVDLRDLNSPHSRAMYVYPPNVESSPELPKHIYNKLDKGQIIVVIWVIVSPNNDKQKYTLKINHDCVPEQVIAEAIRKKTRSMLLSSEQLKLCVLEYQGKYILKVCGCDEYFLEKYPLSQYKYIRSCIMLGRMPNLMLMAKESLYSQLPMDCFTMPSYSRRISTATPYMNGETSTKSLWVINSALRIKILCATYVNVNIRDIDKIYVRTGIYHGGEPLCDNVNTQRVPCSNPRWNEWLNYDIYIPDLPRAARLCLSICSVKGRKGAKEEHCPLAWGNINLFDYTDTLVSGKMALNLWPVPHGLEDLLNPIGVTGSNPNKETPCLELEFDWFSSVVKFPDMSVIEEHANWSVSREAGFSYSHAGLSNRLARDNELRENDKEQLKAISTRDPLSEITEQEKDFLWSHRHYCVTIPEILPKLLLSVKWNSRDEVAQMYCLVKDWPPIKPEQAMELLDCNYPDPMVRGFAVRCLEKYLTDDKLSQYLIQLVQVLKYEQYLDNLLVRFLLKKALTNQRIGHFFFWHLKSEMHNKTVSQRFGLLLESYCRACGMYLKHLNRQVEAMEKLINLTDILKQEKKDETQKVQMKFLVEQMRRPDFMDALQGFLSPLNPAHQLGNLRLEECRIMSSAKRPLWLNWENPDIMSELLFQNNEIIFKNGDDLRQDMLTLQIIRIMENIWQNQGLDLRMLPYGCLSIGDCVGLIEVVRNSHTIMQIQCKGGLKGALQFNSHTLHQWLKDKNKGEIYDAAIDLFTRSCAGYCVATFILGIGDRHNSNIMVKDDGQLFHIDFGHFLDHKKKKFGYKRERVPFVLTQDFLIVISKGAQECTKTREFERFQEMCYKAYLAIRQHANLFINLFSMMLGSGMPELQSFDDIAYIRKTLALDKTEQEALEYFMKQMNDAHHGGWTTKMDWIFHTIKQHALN
Chain of Phosphatidylinositol 4,5-bisphosphate 3-kinase catalytic subunit beta isoform (P42338 whole entry, canonical isoform): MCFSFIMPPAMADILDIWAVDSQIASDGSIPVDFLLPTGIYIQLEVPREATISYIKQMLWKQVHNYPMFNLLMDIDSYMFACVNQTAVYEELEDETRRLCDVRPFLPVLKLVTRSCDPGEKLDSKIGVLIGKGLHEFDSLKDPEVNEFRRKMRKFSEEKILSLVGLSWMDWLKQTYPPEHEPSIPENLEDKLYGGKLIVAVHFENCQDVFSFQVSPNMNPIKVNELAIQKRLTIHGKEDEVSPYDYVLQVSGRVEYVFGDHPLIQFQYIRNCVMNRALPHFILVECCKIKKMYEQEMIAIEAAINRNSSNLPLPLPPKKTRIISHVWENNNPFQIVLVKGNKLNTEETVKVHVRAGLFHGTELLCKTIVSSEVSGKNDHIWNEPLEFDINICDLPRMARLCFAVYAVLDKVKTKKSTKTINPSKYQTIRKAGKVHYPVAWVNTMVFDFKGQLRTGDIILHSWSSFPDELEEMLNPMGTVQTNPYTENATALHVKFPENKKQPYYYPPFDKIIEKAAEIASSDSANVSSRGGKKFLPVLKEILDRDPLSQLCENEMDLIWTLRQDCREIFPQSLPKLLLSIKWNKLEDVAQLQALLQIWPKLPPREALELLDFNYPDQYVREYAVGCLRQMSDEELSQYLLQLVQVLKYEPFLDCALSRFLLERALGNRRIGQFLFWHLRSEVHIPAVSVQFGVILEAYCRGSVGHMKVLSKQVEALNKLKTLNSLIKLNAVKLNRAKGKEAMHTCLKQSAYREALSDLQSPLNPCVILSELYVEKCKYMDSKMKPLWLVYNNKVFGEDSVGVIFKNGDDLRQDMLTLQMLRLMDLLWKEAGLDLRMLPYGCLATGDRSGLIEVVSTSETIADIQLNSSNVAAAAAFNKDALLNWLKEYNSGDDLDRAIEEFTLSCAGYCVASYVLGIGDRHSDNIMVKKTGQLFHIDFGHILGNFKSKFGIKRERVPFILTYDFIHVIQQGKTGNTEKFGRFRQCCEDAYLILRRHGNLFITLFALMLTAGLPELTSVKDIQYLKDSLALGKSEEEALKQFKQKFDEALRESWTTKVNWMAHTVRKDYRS

| Compound | IC50 [1] [µM] | IC50 [2] [µM] | IC50 [3] [µM] | inhibition [4] [%] | further results |
| --- | --- | --- | --- | --- | --- |
| C=CC(=O)Nc1cccc(Nc2ncnc3ccc(-c4cnc5ccccc5c4)cc23)c1 | > 50 | 0.117 | 3.5 |  |  |
| C=CC(=O)Nc1cccc(Nc2ncnc3ccc(-c4ccc(F)nc4)cc23)c1 |  |  | > 50 | 46.6 |  |
| C=CC(=O)Nc1cccc(Nc2ncnc3ccc(-c4ccc(Cl)nc4)cc23)c1 |  | 0.104 | 11.6 | 64.6 |  |
| C=CC(=O)Nc1cccc(Oc2ncnc3ccc(-c4cnc5ccccc5c4)cc23)c1 | 10.6 |  | 8.6 | 29.5 |  |
| C=CC(=O)Nc1cc(Nc2ncnc3ccc(-c4cnc5ccccc5c4)cc23)ccc1C | 5.4 | 0.0275 | 8.5 |  | Ratio IC50 [5]: 300; inhibition [6]: Dose-dependent effect; Ratio IC50 [7]: 20; Ratio IC50 [8]: 45; Activity [9]: Tde; IC50 [10]: 19.6 µM; Activity [11]: 10.78%; Stabilty [12]: Unstable; Stabilty [13]: Unstable; Activity [14]: >50%; Activity [15]: Dose-dependent effect; IC50 [16]: 0.561 µM; IC50 [17]: 1.25 µM |
| CC#CC(=O)Nc1cccc(Nc2ncnc3ccc(-c4cnc5ccccc5c4)cc23)c1 | > 50 | 0.41 |  |  |  |
| C=CC(=O)N1CCc2ccc(Nc3ncnc4ccc(-c5cnc6ccccc6c5)cc34)cc21 | 17 | 0.495 | 0.9 |  |  |
| CCC(=O)Nc1cccc(Nc2ncnc3ccc(-c4cnc5ccccc5c4)cc23)c1 |  | 0.021 |  |  |  |
| C=CC(=O)Nc1cccc(Oc2ncnc3ccc(-c4cccnc4)cc23)c1 | 9.4 |  | 14.8 | 41.8 |  |
| C=CC(=O)Nc1cccc(Oc2ncnc3ccc(-c4ccc(F)nc4)cc23)c1 | 11 |  | 11 | 23.4 |  |
| C=CC(=O)Nc1cccc(Oc2ncnc3ccc(-c4ccc(Cl)nc4)cc23)c1 | 10.1 |  |  | 33.1 |  |
| C/C=C/C(=O)Nc1cccc(Nc2ncnc3ccc(-c4cnc5ccccc5c4)cc23)c1 | 5 | 0.129 | 2.7 |  |  |
| Cn1c(=O)n(-c2ccc(C(C)(C)C#N)cc2)c2c3cc(-c4cnc5ccccc5c4)ccc3ncc21 [DACTOLISIB] | 0.6 |  | 0.3 | 66.3 | Activity [11]: 10.24% |
